According to patent publication US20230286958A1, “PLASMA KALLIKREIN INHIBITORS” (Merck Sharp & Dohme LLC, priority 2020, published 2023):

What was measured:
human Factor XIa = human Factor XIa (Homo sapiens (Human), UniProt P03951); assay: Factor XIa Assay (fluorogenic substrate GPR-AFC); type: biochemical; conditions: Factor XIa (FXIa)
Human plasma kallikrein = Human plasma kallikrein (Homo sapiens (Human), UniProt P03952); assay: Kallikrein Assay (fluorogenic substrate Acetyl-K-P-R-AFC); type: biochemical; conditions: Plasma Kallikrein (PKal)
Sequence of Human plasma kallikrein (P03952 391-638): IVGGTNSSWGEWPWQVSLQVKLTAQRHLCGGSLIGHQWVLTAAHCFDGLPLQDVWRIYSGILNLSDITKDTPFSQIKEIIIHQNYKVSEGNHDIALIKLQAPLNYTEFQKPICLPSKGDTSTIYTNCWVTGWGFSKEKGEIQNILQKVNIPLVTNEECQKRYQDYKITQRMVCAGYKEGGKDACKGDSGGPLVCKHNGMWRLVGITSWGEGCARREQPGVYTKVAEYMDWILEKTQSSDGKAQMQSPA
Sequence of Human plasma kallikrein (P03952 20-390 partner): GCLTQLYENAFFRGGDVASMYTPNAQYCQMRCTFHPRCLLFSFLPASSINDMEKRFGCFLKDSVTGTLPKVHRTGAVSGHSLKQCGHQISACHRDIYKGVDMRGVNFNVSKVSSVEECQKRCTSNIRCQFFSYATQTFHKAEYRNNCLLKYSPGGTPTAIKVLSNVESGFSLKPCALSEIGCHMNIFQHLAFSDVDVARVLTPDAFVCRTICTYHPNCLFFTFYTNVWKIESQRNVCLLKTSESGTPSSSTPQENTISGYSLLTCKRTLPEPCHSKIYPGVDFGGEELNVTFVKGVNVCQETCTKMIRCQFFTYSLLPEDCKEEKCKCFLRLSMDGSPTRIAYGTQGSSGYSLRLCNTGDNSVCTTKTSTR
Method in brief: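 Ki is derived from IC50 with the Cheng-Prusoff equation, and IC50 from the inflection point of a four-parameter logistic curve. The rate of AFC release is read with 0.5 nM purified enzyme and […] substrate at room temperature or 37 °C.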

Sequence of human Factor XIa (P03951 388-625 limits assumed): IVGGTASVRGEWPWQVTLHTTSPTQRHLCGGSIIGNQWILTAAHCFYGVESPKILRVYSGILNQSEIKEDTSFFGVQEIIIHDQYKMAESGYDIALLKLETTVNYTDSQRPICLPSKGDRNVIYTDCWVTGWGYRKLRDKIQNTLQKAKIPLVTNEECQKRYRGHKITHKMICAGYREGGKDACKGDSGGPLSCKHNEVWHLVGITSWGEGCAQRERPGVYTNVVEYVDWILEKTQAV
Sequence of human Factor XIa (P03951 19-387 partner limits assumed): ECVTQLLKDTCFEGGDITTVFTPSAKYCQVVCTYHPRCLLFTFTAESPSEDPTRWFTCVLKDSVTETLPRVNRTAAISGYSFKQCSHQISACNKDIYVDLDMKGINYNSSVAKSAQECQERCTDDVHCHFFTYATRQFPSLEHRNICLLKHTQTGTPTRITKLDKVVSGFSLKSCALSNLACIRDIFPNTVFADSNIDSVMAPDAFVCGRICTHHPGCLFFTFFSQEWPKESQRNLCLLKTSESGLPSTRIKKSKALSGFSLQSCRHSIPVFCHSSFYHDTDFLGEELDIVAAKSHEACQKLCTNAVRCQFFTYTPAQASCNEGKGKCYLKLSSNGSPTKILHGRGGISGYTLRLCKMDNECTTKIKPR

Row | SMILES | IC50 (human Factor XIa) [nM] | IC50 (Human plasma kallikrein) [nM]
1 | Cc1ncc(-c2c(C#N)ccc(Cl)c2F)nc1C(=O)Nc1cnn(C(C)c2cnc(N3C[C@H]4C[C@H]4C3=O)c(F)c2C)c1 (single isomer, unassigned) [Example 135, 6-(3-Chloro-6-cyano-2-fluorophenyl)-N-(1-((S or R)-1-(5-fluoro-4-methyl-6-((1R,5S)-2-oxo-3-azabicyclo[3.1.0]hexan-3-yl)pyridin-3-yl)ethyl)-1H-pyrazol-4-yl)-3-methylpyrazine-2-carboxamide] | 4880 | 5.4
2 | Cc1ncc(-c2c(C#N)ccc(Cl)c2F)nc1C(=O)Nc1cnn(C(C)c2cnc(N3C[C@H]4C[C@H]4C3=O)c(F)c2C)c1 (single isomer, unassigned) [Example 136, 6-(3-Chloro-6-cyano-2-fluorophenyl)-N-(1-((R or S)-1-(5-fluoro-4-methyl-6-((1R,5S)-2-oxo-3-azabicyclo[3.1.0]hexan-3-yl)pyridin-3-yl)ethyl)-1H-pyrazol-4-yl)-3-methylpyrazine-2-carboxamide] | 591 | 0.2
3 | Cc1ncc(-c2c(C(F)F)ccc(Cl)c2F)nc1C(=O)Nc1cnn(C(C)c2ncc(N3C[C@H]4C[C@H]4C3=O)cc2F)c1 (single isomer, unassigned) [Example 137, 6-(3-Chloro-6-(difluoromethyl)-2-fluorophenyl)-N-(1-((S or R)-1-(3-fluoro-5-((1R,5S)-2-oxo-3-azabicyclo[3.1.0]hexan-3-yl)pyridin-2-yl)ethyl)-1H-pyrazol-4-yl)-3-methylpyrazine-2-carboxamide] | > 10000 | 7.7
4 | Cc1cc(C(C)n2cc(NC(=O)c3nc(-c4c(C#N)ccc(Cl)c4F)cnc3C)cn2)cnc1N1C[C@H]2C[C@H]2C1=O (single isomer, unassigned) [Example 139, 6-(3-Chloro-6-cyano-2-fluorophenyl)-3-methyl-N-(1-((S or R)-1-(5-methyl-6-((1R,5S)-2-oxo-3-azabicyclo[3.1.0]hexan-3-yl)pyridin-3-yl)ethyl)-1H-pyrazol-4-yl)pyrazine-2-carboxamide] | 282 | 0.9
5 | Cc1cc(C(C)n2cc(NC(=O)c3nc(-c4c(C#N)ccc(Cl)c4F)cnc3C)cn2)cnc1N1C[C@H]2C[C@H]2C1=O (single isomer, unassigned) [Example 140, 6-(3-Chloro-6-cyano-2-fluorophenyl)-3-methyl-N-(1-((R or S)-1-(5-methyl-6-((IR,5S)-2-oxo-3-azabicyclo[3.1.0]hexan-3-yl)pyridin-3-yl)ethyl)-1H-pyrazol-4-yl)pyrazine-2-carboxamide] | 972 | 0.6
6 | CC(c1cnc(N2C[C@H]3C[C@H]3C2=O)c(F)c1)n1cc(NC(=O)c2nc(-c3c(C(F)F)ccc(Cl)c3F)cnc2COC(C)(C)C)cn1 (single isomer, unassigned) [Example 143, 3-(tert-Butoxymethyl)-6-(3-chloro-6-(difluoromethyl)-2-fluorophenyl)-N-(1-((S or R)-1-(5-fluoro-6-((1R,5S)-2-oxo-3-azabicyclo[3.1.0]hexan-3-yl)pyridin-3-yl)ethyl)-1H-pyrazol-4-yl)pyrazine-2-carboxamide] | 4310 | 4.9
7 | CC(c1cnc(N2C[C@H]3C[C@H]3C2=O)c(F)c1)n1cc(NC(=O)c2nc(-c3c(C(F)F)ccc(Cl)c3F)cnc2COC(C)(C)C)cn1 (single isomer, unassigned) [Example 144, 3-(tert-Butoxymethyl)-6-(3-chloro-6-(difluoromethyl)-2-fluorophenyl)-N-(1-((R or S)-1-(5-fluoro-6-((1R,5S)-2-oxo-3-azabicyclo[3.1.0]hexan-3-yl)pyridin-3-yl)ethyl)-1H-pyrazol-4-yl)pyrazine-2-carboxamide] | > 10000 | 1.6
8 | Cc1ncc(-c2c(C(F)F)ccc(Cl)c2F)nc1C(=O)Nc1cnn(C(C)c2ncc(N3C[C@H]4C[C@H]4C3=O)cc2Cl)c1 (single isomer, unassigned) [Example 147, N-(1-((R or S)-1-(3-Chloro-5-((1R,5S)-2-oxo-3-azabicyclo[3.1.0]hexan-3-yl)pyridin-2-yl)ethyl)-1H-pyrazol-4-yl)-6-(3-chloro-6-(difluoromethyl)-2-fluorophenyl)-3-methylpyrazine-2-carboxamide] | 7300 | 2.9

The next lines start with the values.

Row | IC50 (human Factor XIa) [nM] | IC50 (Human plasma kallikrein) [nM] | SMILES
9 | 906 | 1.1 | CC(c1cnc(N2C[C@H]3C[C@H]3C2=O)c2c1CCC2)n1cc(NC(=O)c2cncc(-c3c(C(F)F)ccc(Cl)c3F)n2)cn1 (single isomer, unassigned) [Example 141, 6-(3-Chloro-6-(difluoromethyl)-2-fluorophenyl)-N-(1-((S or R)-1-(1-((1R,5S)-2-oxo-3-azabicyclo[3.1.0]hexan-3-yl)-6,7-dihydro-5H-cyclopenta[c]pyridin-4-yl)ethyl)-1H-pyrazol-4-yl)pyrazine-2-carboxamide]
10 | 373 | 0.6 | CC(c1cnc(N2C[C@H]3C[C@H]3C2=O)c2c1CCC2)n1cc(NC(=O)c2cncc(-c3c(C(F)F)ccc(Cl)c3F)n2)cn1 (single isomer, unassigned) [Example 142, 6-(3-Chloro-6-(difluoromethyl)-2-fluorophenyl)-N-(1-((R or S)-1-(1-((1R,5S)-2-oxo-3-azabicyclo[3.1.0]hexan-3-yl)-6,7-dihydro-5H-cyclopenta[c]pyridin-4-yl)ethyl)-1H-pyrazol-4-yl)pyrazine-2-carboxamide]
11 | > 10000 | 9.8 | CC(c1ncc(N2C[C@H]3C[C@H]3C2=O)cc1F)n1cc(NC(=O)c2cncc(-c3c(C(F)F)ccc(Cl)c3F)n2)cn1 (single isomer, unassigned) [Example 146, 6-(3-Chloro-6-(difluoromethyl)-2-fluorophenyl)-N-(1-((R or S)-1-(3-fluoro-5-((1R,5S)-2-oxo-3-azabicyclo[3.1.0]hexan-3-yl)pyridin-2-yl)ethyl)-1H-pyrazol-4-yl)pyrazine-2-carboxamide]
12 | 197 | 0.3 | Cc1c(C(C)n2cc(NC(=O)c3cncc(-c4c(C(F)F)ccc(Cl)c4F)n3)cn2)cnc(N2C[C@H]3C[C@H]3C2=O)c1C (single isomer, unassigned) [Example 152, 6-(3-Chloro-6-(difluoromethyl)-2-fluorophenyl)-N-(1-((R or S)-1-(4,5-dimethyl-6-((1R,5S)-2-oxo-3-azabicyclo[3.1.0]hexan-3-yl)pyridin-3-yl)ethyl)-1H-pyrazol-4-yl)pyrazine-2-carboxamide]
13 | 2170 | 2 | Cc1c(C(C)n2cc(NC(=O)c3cncc(-c4c(C(F)F)ccc(Cl)c4F)n3)cn2)cnc(N2C[C@H]3C[C@H]3C2=O)c1C (single isomer, unassigned) [Example 153, 6-(3-Chloro-6-(difluoromethyl)-2-fluorophenyl)-N-(1-((S or R)-1-(4,5-dimethyl-6-((1R,5S)-2-oxo-3-azabicyclo[3.1.0]hexan-3-yl)pyridin-3-yl)ethyl)-1H-pyrazol-4-yl)pyrazine-2-carboxamide]
14 | 661 | 0.3 | COc1c(N2C[C@H]3C[C@H]3C2=O)ncc(C(C)n2cc(NC(=O)c3cncc(-c4c(C(F)F)ccc(Cl)c4F)n3)cn2)c1C (single isomer, unassigned) [Example 154, 6-(3-Chloro-6-(difluoromethyl)-2-fluorophenyl)-N-(1-((R or S)-1-(5-methoxy-4-methyl-6-((1R,5S)-2-oxo-3-azabicyclo[3.1.0]hexan-3-yl)pyridin-3-yl)ethyl)-1H-pyrazol-4-yl)pyrazine-2-carboxamide]
